Measured values from patent US8492408B2, “Benzimidazole derivatives and their use for modulating the GABAA receptor complex” (Aniona APS, priority 2008, dated 2013).

Biological target: benzodiazepine modulatory unit of the GABAA receptor complex (3H-flunitrazepam binding, cerebral cortex membranes)
Assay: In vitro inhibition of 3H-flunitrazepam (3H-FNM) binding
Set-up: species or system rat
Conditions: inhibition of specific 3H-FNM (1 nM) binding, cerebral cortex membranes from male Wistar rats, 40 min at 2° C.
Protocol: In Vitro Inhibition of ^3H-Flunitrazepam (^3H-FNM) Binding
The GABA recognition site and the benzodiazepine modulatory unit can selectively be labelled with ^3H-flunitrazepam.
Preparations are performed at 0-4° C. unless otherwise indicated. Cerebral cortex from male Wistar rats (150-200 g) is homogenised for 5-10 sec in 20 ml Tris-HCl (30 mM, pH 7.4) using an Ultra-Turrax homogeniser. The suspension is centrifuged at 27,000×g for 15 min and the pellet is washed three times with buffer (centrifuged at 27,000×g for 10 min). The washed pellet is homogenized in 20 ml of buffer and incubated on a water bath (37° C.) for 30 min to remove endogenous GABA and then centrifuged for 10 min at 27,000×g. The pellet is then homogenized in buffer and centrifuged for 10 min at 27,000×g. The final pellet is resuspended in 30 ml buffer and the preparation is frozen and stored at −20° C.
The membrane preparation is thawed and centrifuged at 2° C. for 10 min at 27,000×g. The pellet is washed twice with 20 ml 50 mM Tris-citrate, pH 7.1 using an Ultra-Turrax homogeniser and centrifuged for 10 min at 27,000×g. The final pellet is resuspended in 50 mM Tris-citrate, pH 7.1 (500 ml buffer per g of original tissue), and then used for binding assays. Aliquots of 0.5 ml tissue are added to 25 μl of test solution and 25 μl of ^3H-FNM (1 nM, final concentration), mixed and incubated for 40 min at 2° C. Non-specific binding is determined using Clonazepam (1 μM, final concentration). After incubation the samples are added 5 ml of ice-cold buffer and poured directly onto Whatman GF/C glass fibre filters under suction and immediately washed with 5 ml ice-cold buffer. The amount of radioactivity on the filters is determined by conventional liquid scintillation counting. Specific binding is total binding minus non-specific binding.
The test value will be given as IC50 (the concentration (μM) of the test substance which inhibits the specific binding of ^3H-FNM by 50%).
Co is specific binding in control assays, and
Cx is the specific binding in the test assay.
(The calculations assume normal mass-action kinetics).

Row | SMILES | IC50 [nM]
1 | CC(C)(O)c1ccc2c(c1)ncn2-c1ccnc(-c2cccnc2Cl)c1 [Compound 7b, 2-[1-(2′-Chloro-[2,3′]bipyridinyl-4-yl)-1H-benzoimidazol-5-yl]-propan-2-ol] | 38
2 | CC(C)(O)c1ccc2c(c1)ncn2-c1ccnc(-c2ccncc2F)c1 [Compound 7c, 2-[1-(3′-Fluoro-[2,4′]bipyridinyl-4-yl)-1H-benzoimidazol-5-yl]-propan-2-ol] | 7.5
3 | CC(C)(O)c1ccc2c(c1)ncn2-c1ccnc(-c2ccncc2C#N)c1 [Compound 7d, 4-[5-(1-Hydroxy-1-methyl-ethyl)-benzoimidazol-1-yl]-[2,4′]bipyridinyl-3′-carbonitrile] | 26
4 | COc1ncccc1-c1cc(-n2cnc3cc(C(C)(C)O)ccc32)ccn1 [Compound 7a, 2-[1-(2′-Methoxy-[2,3′]bipyridinyl-4-yl)-1H-benzoimidazol-5-yl]-propan-2-ol] | 1.2
